This is an account of results in paper PMC6312923 (Life Science Alliance, 2018).

Assay [1] deals with HEK293 cells, PCNA foci. Description: Co-localization of Cdt2 with PCNA foci (S phase) in HEK293 cells. The format is cell-based, human. The conditions noted are these: stable HEK293, asynchronous, pre-extracted. From the text: XPA, a component of nucleotide excision repair, staining was used to confirm that similar extents of DNA damage were induced both in Cdt2^WT- and Cdt2^PIP-3A-expressing cells. […] A similar percentage of PCNA-positive S-phase cells was detected both in Cdt2^1–730/WT-expressing cells and Cdt2^PIP-3A-expressing cells (Fig S6). […] More than 80% of PCNA-positive cells were co-stained with Cdt2^WT, with the early S-phase cells displaying stronger Cdt2^WT staining than the late S-phase cells as reported ([Nukina et al, 2018]) (Figs 6B and C, and S6A).
Figure 6. The Cdt2 PIP box is important for its recruitment to DNA damage sites and replication foci and for poly-ubiquitination activity. (A) HEK293 and stable Cdt2^WT or Cdt2^PIP-3A cells were locally UV irradiated, and stained for XPA and FLAG (Cdt2). XPA-positive spots were examined for FLAG signal, and its frequency was counted (%). More than 50 spots were examined. bar:10 μm. […] Bar: 10 μm. […] (D) Whole-cell extracts were prepared from HEK293 and stably transfected cells of Cdt2^WT or Cdt2^PIP-3A cells, separated into soluble (Sup) and chromatin-containing insoluble (Ppt) fractions, and were examined for indicated proteins. The asterisk indicates nonspecific bands. […]
(§1) For Western blotting, whole-cell lysates were prepared by lysing cell pellets directly in SDS–PAGE buffer. […] Protein levels were analysed by ImageJ software.

Assay [2] concerns Cdt1 degradation in S/G2, U2OS cells. Description: Cdt1-positive cells among cyclin A-positive U2OS cells. The conditions noted are these: siCdt2 and/or siSkp2. The class given is cell-based, human. Here is the method: Next, we examined Cdt1 degradation after the onset of the S phase in the Cdt2^PIP-3A-expressing cells. Cyclin A is present in the S and G2 phase, when Cdt1 should be degraded. Thus, Cdt1 should be present in cells that are negative for cyclin A, and absent in cells that are positive for cyclin A ([Nishitani et al, 2006]; [Xouri et al., 2007a], [2007b]). Cdt1 degradation after the onset of the S phase is carried out by two ubiquitin ligases, CRL1^Skp2 and CRL4^Cdt2. We depleted the substrate recognition subunits, Cdt2 and/or Skp2, by siRNA, and the percentage of Cdt1 positive cells among cyclin A–positive cells was assessed by immunofluorescence. […]
Figure 8. […] The frequency of Cdt1-positive (+) cells among cyclin A–positive (+) cells was calculated (n = 3). […] (D) Cells treated with siCdt2 or control siLuc were measured for their nuclear size (n = 200 for each), and are shown in a scatter plot. […]
as §1
Double-stranded RNAs were transfected at 100 nM using Oligofectamine (Invitrogen) or HiPerFect (QIAGEN). […] For Cdt1 silencing in Fig 1A and B, unsychronized HeLa cells were transfected twice with 200 nM of Cdt1 siRNA or control luciferase siRNA using Lipofectamine 2000 with a time interval of 24 h and were analysed 48 h after the second transfection. […]

With “Cdt2: Cdt2 tagged with GFP, transiently expressed in MCF7 cells”, the “PCNA-positive cells co-stained with Cdt2” value in assay [1] was “More than 80%”. In assay [2], the “rescue of Cdt1 degradation in cell cycle” value was “fully complemented the depletion of Cdt2, and also the co-depletion of Skp2”.

B1: Cdt2^PIP-3A: Cdt2 with I709, Y712, and F713 all mutated to alanine (protein, UniProt Q9NZJ0 1-730, looked up, variant I709A Y712A F713A)
Denticleless protein homolog: MLFNSVLRQPQLGVLRNGWSSQYPLQSLLTGYQCSGNDEHTSYGETGVPVPPFGCTFSSAPNMEHVLAVANEEGFVRLYNTESQSFRKKCFKEWMAHWNAVFDLAWVPGELKLVTAAGDQTAKFWDVKAGELIGTCKGHQCSLKSVAFSKFEKAVFCTGGRDGNIMVWDTRCNKKDGFYRQVNQISGAHNTSDKQTPSKPKKKQNSKGLAPSVDFQQSVTVVLFQDENTLVSAGAVDGIIKVWDLRKNYTAYRQEPIASKSFLYPGSSTRKLGYSSLILDSTGSTLFANCTDDNIYMFNMTGLKTSPVAIFNGHQNSTFYVKSSLSPDDQFLVSGSSDEAAYIWKVSTPWQPPTVLLGHSQEVTSVCWCPSDFTKIATCSDDNTLKIWRLNRGLEEKPGGDKLSTVGWASQKKKESRPGLVTVTSSQSTPAKAPRAKCNPSNSSPSSAACAPSCAGDLPLPSNTPTFSIKTSPAKARSPINRRGSVSSVSPKPPSSFKMSIRNWVTRTPSSSPPITPPASETKIMSPRKALIPVSQKSSQAEACSESRNRVKRRLDSSCLESVKQKCVKSCNCVTELDGQVENLHLDLCCLAGNQEDLSKDSLGPTKSSKIEGAGTSISEPPSPISPYASESCGTLPLPLRPCGEGSEMVGKENSSPENKNWLLAMAAKRKAENPSPRSPSSQTPNSRRQSGKKLPSPVTITPSSMRKACTAAHRKSQEDFCGPEHSTEL
modifications: FLAG tag
notes: Cdt2 with I709, Y712, and F713 all mutated to alanine
On to B1, for which the “Cdt2 signal in PCNA foci” value in assay [1] was “almost no signal was detected”. The “rescue of Cdt1 degradation in cell cycle” value in assay [2] is “not fully rescued”.
